# Experimental data from patent US20240327380A1, “BTK INHIBITORS” (BIOGEN MA INC., priority 2020, published 2024).
# Target: T1, active BTK enzyme (Upstate 14-552) (Homo sapiens, UniProt Q06187)
# T1 construct: purchased Upstate 14-552
# Assay: In Vitro BTK Kinase Assay: Btk-PolyGAT-LS Assay
# Type: biochemical
# Conditions: ATP 10 μM, polyGAT 100 nM, BTK 0.25 nM, 30 minutes, TRF readout
# Method: In Vitro BTK Kinase Assay: Btk-PolyGAT-LS Assay The purpose of the BTK in vitro assay is to determine compound potency against BTK through the measurement of IC50. Compound inhibition is measured after monitoring the amount of phosphorylation of a fluorescein-labeled polyGAT peptide (Invitrogen PV3611) in the presence of active BTK enzyme (Upstate 14-552), ATP, and inhibitor. The BTK kinase reaction was done in a black 96 well plate (costar 3694). For a typical assay, a 24 μL aliquot of a ATP/peptide master mix (final concentration; ATP 10 μM, polyGAT 100 nM) in kinase buffer (10 mM Tris-HCl pH 7.5, 10 mM MgCl2, 200 μM […], 5 mM DTT, 0.01% Triton X-100, and 0.2 mg/ml casein) is added to each well. Next, […] of a 4-fold, 40× compound titration in 100% DMSO solvent is added, followed by adding 15 μL of BTK enzyme mix in 1× kinase buffer (with a final concentration of 0.25 nM). The assay is incubated for 30 minutes before being stopped with 28 μL of a 50 mM EDTA solution. Aliquots (5 μL) of the kinase reaction are transferred to a low volume white 384 well plate (Coming 3674), and 5 μL of a 2× detection buffer (Invitrogen PV3574, with 4 nM Tb-PY20 antibody, Invitrogen PV3552) is added. The plate is covered and incubated for 45 minutes at room temperature. Time resolved fluorescence (TRF) on Molecular Devices M5 (332 nm excitation; 488 nm emission; 518 nm fluorescein emission) is measured. IC50 values are calculated using a four parameter fit with 100% enzyme activity determined from the DMSO control and 0% activity from the EDTA control.
# T1 sequence (Q06187 whole entry): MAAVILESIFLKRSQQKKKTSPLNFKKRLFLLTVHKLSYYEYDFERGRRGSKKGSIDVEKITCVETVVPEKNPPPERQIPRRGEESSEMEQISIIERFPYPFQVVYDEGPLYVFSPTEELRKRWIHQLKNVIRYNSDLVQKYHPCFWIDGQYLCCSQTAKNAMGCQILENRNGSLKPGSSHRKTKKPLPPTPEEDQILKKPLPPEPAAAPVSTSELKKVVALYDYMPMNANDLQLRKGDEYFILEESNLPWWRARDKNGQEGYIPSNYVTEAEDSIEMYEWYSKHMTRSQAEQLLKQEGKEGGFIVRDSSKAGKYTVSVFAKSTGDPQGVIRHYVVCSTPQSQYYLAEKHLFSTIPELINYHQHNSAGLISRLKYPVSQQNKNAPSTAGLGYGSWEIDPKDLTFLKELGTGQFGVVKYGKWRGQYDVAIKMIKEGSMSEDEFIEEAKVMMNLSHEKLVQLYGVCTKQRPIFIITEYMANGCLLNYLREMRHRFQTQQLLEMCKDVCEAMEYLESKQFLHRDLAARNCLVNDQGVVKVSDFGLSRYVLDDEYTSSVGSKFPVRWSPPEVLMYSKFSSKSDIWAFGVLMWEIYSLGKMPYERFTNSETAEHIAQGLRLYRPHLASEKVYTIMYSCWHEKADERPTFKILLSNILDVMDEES
row,Structure (SMILES),IC50 [nM]
1,"C=CC(=O)N(C)[C@@H]1CCCN(c2cncc(C#N)c2-c2ccc(CNC(=O)c3cn(C(C)(C)C)nn3)c(C)c2F)C1 [Example 47, 1-(tert-butyl)-N-(4-(3-cyano-5-((R)-3-(N-methylacrylamido)piperidin-1-yl)pyridin-4-yl)-3-fluoro-2-methylbenzyl)-1H-1,2,3-triazole-4-carboxamide]",≤ 1
2,"C=CC(=O)N1CCN(c2cnccc2-c2ccc(CNC(=O)c3noc(C4(CF)CC4)n3)c(C)c2)CC1 [Example 98, N-(4-(3-(4-acryloylpiperazin-1-yl)pyridin-4-yl)-2-methylbenzyl)-5-(1-(fluoromethyl)cyclopropyl)-1,2,4-oxadiazole-3-carboxamide]",≤ 1
3,"C=CC(=O)N(C)C1CCCN(c2cnccc2-c2ccc(CNC(=O)c3ncc(C(C)(C)C)o3)c(C)c2)C1 (centres unmarked) [Example 45, 5-(tert-butyl)-N-(2-methyl-4-(3-(3-(N-methylacrylamido)piperidin-1-yl)pyridin-4-yl)benzyl)oxazole-2-carboxamide]",≤ 1
4,"Cc1cc(-c2ccncc2N2CCN(C(=O)/C=C/CN(C)C)CC2)ccc1CNC(=O)c1noc(C2(CF)CC2)n1 [Example 93, (E)-N-(4-(3-(4-(4-(dimethylamino)but-2-enoyl)piperazin-1-yl)pyridin-4-yl)-2-methylbenzyl)-5-(1-(fluoromethyl)cyclopropyl)-1,2,4-oxadiazole-3-carboxamide]",≤ 1
5,"C=CC(=O)N1CCC[C@@H](c2cnccc2-c2ccc(CNC(=O)c3nc(C4(C)CC4)no3)c(C)c2)C1 (single isomer, unassigned) [Example 31]",> 10
6,"C=CC(=O)N(C)[C@@H]1CCC(=O)N(c2cnccc2-c2ccc(CNC(=O)c3nnn(C(C)(C)C)n3)c(C)c2)C1 (single isomer, unassigned) [Example 53 Peak 2]",> 10
7,"C=CC(=O)N(C)CC1CCCN(c2cnccc2-c2ccc(CNC(=O)c3noc(C(C)(C)C)n3)c(C)c2)C1 (centres unmarked) [Example 21, 5-(tert-butyl)-N-(2-methyl-4-(3-(3-((N-methylacrylamido)methyl)piperidin-1-yl)pyridin-4-yl)benzyl)-1,2,4-oxadiazole-3-carboxamide]",1 to 10
8,"C=CC(=O)N1CC2CC1CN(c1cnccc1-c1ccc(CNC(=O)c3cc(C(C)(C)C)on3)c(C)c1)C2 (centres unmarked) [Example 55, 5-tert-butyl-N-[[2-methyl-4-[3-(6-prop-2-enoyl-3,6-diazabicyclo[3.2.1]octan-3-yl)-4-pyridyl]phenyl]methyl]isoxazole-3-carboxamide]",> 10
9,"C=CC(=O)N1CCN(c2cncnc2-c2ccc(CNC(=O)c3cn(C(C)(C)C)nn3)c(C)c2)CC1 [Example 50, N-(4-(5-(4-acryloylpiperazin-1-yl)pyrimidin-4-yl)-2-methylbenzyl)-1-(tert-butyl)-1H-1,2,3-triazole-4-carboxamide]",≤ 1
10,"CN(C)C/C=C/C(=O)N1CCN(c2cnccc2-c2ccc(CNC(=O)c3noc(C4(C)CC4)n3)c(C(F)(F)F)c2)CC1 [Example 91, (E)-N-(4-(3-(4-(4-(dimethylamino)but-2-enoyl)piperazin-1-yl)pyridin-4-yl)-2-(trifluoromethyl)benzyl)-5-(1-methylcyclopropyl)-1,2,4-oxadiazole-3-carboxamide]",≤ 1
11,"Cc1cc(-c2c(C#N)cncc2N2CCN(C(=O)/C=C/CN(C)C)CC2)ccc1CNC(=O)c1cc(C(C)(C)C)on1 [Example 70, (E)-5-(tert-butyl)-N-(4-(3-cyano-5-(4-(4-(dimethylamino)but-2-enoyl)piperazin-1-yl)pyridin-4-yl)-2-methylbenzyl)isoxazole-3-carboxamide]",1 to 10
12,"Cc1cc(-c2ccncc2N2CCN(C(=O)/C=C/CN(C)C)CC2)ccc1CN1CCc2c(cnn2C(C)(C)C)C1=O [Example 72, (E)-1-(tert-butyl)-5-(4-(3-(4-(4-(dimethylamino)but-2-enoyl)piperazin-1-yl)pyridin-4-yl)-2-methylbenzyl)-1,5,6,7-tetrahydro-4H-pyrazolo[4,3-c]pyridin-4-one]",≤ 1
13,"C=CC(=O)N1CC2CC1CN(c1cnccc1-c1ccc(CNC(=O)c3cn(C(C)(C)C)nn3)c(C)c1)C2 (centres unmarked) [Example 54, 1-tert-butyl-N-[[2-methyl-4-[3-(6-prop-2-enoyl-3,6-diazabicyclo[3.2.1]octan-3-yl)-4-pyridyl]phenyl]methyl]triazole-4-carboxamide]",> 10
14,"Cc1cc(-c2c(F)cncc2N2CCN(C(=O)/C=C/CN(C)C)CC2)ccc1CNC(=O)c1nc(C(C)(C)C)no1 [Example 78, (E)-3-(tert-butyl)-N-(4-(3-(4-(4-(dimethylamino)but-2-enoyl)piperazin-1-yl)-5-fluoropyridin-4-yl)-2-methylbenzyl)-1,2,4-oxadiazole-5-carboxamide]",≤ 1
15,"C=CC(=O)N(C)C1CCCN(c2cnccc2-c2ccc(CNC(=O)c3cn(C(C)(C)C)nn3)c(C)c2)C1=O (centres unmarked) [Example 10, 1-(tert-butyl)-N-(2-methyl-4-(3-(3-(N-methylacrylamido)-2-oxopiperidin-1-yl)pyridin-4-yl)benzyl)-1H-1,2,3-triazole-4-carboxamide]",> 10
16,"C=CC(=O)N(C)CC1CCN(c2cnccc2-c2ccc(CNC(=O)c3noc(C(C)(C)C)n3)c(C)c2)C1 (centres unmarked) [Example 20, 5-(tert-butyl)-N-(2-methyl-4-(3-(3-((N-methylacrylamido)methyl)pyrrolidin-1-yl)pyridin-4-yl)benzyl)-1,2,4-oxadiazole-3-carboxamide]",≤ 1
17,"Cc1cc(-c2c(F)cncc2N2CCN(C(=O)/C=C/CN(C)C)CC2)ccc1CNC(=O)c1noc(C(C)(C)C)n1 [Example 76, (E)-5-(tert-butyl)-N-(4-(3-(4-(4-(dimethylamino)but-2-enoyl)piperazin-1-yl)-5-fluoropyridin-4-yl)-2-methylbenzyl)-1,2,4-oxadiazole-3-carboxamide]",≤ 1

# The remaining lines, values ahead:
row,IC50 [nM],Structure (SMILES)
1,≤ 1,"C=CC(=O)N1CCN(c2cncnc2-c2ccc(CNC(=O)c3noc(C(C)(C)C)n3)c(C)c2)CC1 [Example 80, N-(4-(5-(4-acryloylpiperazin-1-yl)pyrimidin-4-yl)-2-methylbenzyl)-5-(tert-butyl)-1,2,4-oxadiazole-3-carboxamide]"
2,≤ 1,"CN(C)C/C=C/C(=O)N1CCN(c2cnccc2-c2ccc(CNC(=O)c3noc(C(C)(C)C)n3)c(C(F)F)c2)CC1 [Example 87, (E)-5-(tert-butyl)-N-(2-(difluoromethyl)-4-(3-(4-(4-(dimethylamino)but-2-enoyl)piperazin-1-yl)pyridin-4-yl)benzyl)-1,2,4-oxadiazole-3-carboxamide]"
3,≤ 1,"C=CC(=O)N1CCN(c2cnccc2-c2ccc(CNC(=O)c3noc(C(C)(C)C)c3F)c(C)c2)CC1 [Example 96, N-(4-(3-(4-acryloylpiperazin-1-yl)pyridin-4-yl)-2-methylbenzyl)-5-(tert-butyl)-4-fluoroisoxazole-3-carboxamide]"
4,≤ 1,"Cc1cc(-c2ccncc2N2CCN(C(=O)/C=C/C(F)(F)F)CC2)ccc1CNC(=O)c1noc(C(C)(C)C)n1 [Example 58, (E)-5-(tert-butyl)-N-(2-methyl-4-(3-(4-(4,4,4-trifluorobut-2-enoyl)piperazin-1-yl)pyridin-4-yl)benzyl)-1,2,4-oxadiazole-3-carboxamide]"
5,> 10,"C=CC(=O)N1CC2(CCN(c3cnccc3-c3ccc(CNC(=O)c4noc(C(C)(C)C)n4)c(C)c3)C2)C1 [Example 7, N-(4-(3-(2-acryloyl-2,6-diazaspiro[3.4]octan-6-yl)pyridin-4-yl)-2-methylbenzyl)-5-(tert-butyl)-1,2,4-oxadiazole-3-carboxamide]"
6,1 to 10,"CNC/C=C/C(=O)N1CCN(c2cnccc2-c2ccc(CNC(=O)c3noc(C(C)(C)C)n3)c(C)c2)CC1 [Example 68, (E)-5-(tert-butyl)-N-(2-methyl-4-(3-(4-(4-(methylamino)but-2-enoyl)piperazin-1-yl)pyridin-4-yl)benzyl)-1,2,4-oxadiazole-3-carboxamide]"
7,1 to 10,"Cc1cc(-c2ccncc2N2CCN(C(=O)/C=C/CN3CCC3)CC2)ccc1CNC(=O)c1noc(C(C)(C)C)n1 [Example 66, (E)-N-(4-(3-(4-(4-(azetidin-1-yl)but-2-enoyl)piperazin-1-yl)pyridin-4-yl)-2-methylbenzyl)-5-(tert-butyl)-1,2,4-oxadiazole-3-carboxamide]"
8,≤ 1,"Cc1cc(-c2ccncc2N2CCN(C(=O)/C=C/CN(C)C)C(C(F)(F)F)C2)ccc1CNC(=O)c1noc(C(C)(C)C)n1 (centres unmarked) [Example 75, (E)-5-(tert-butyl)-N-(4-(3-(4-(4-(dimethylamino)but-2-enoyl)-3-(trifluoromethyl)piperazin-1-yl)pyridin-4-yl)-2-methylbenzyl)-1,2,4-oxadiazole-3-carboxamide]"
9,1 to 10,"Cc1cc(-c2ccncc2N2CCN(C(=O)C3CO3)CC2)ccc1CNC(=O)c1noc(C(C)(C)C)n1 (centres unmarked) [Example 59, 5-(tert-butyl)-N-(2-methyl-4-(3-(4-(oxirane-2-carbonyl)piperazin-1-yl)pyridin-4-yl)benzyl)-1,2,4-oxadiazole-3-carboxamide]"
